Results as given in patent publication US6951881B2, “(1-substituted-indol-3-yl) alkylidenehydrazinecarboximidamide derivatives as 5-hydroxytryptamine-6 ligands” (Wyeth, priority 2002, dated 2005).

Biological target: T1, human cloned 5-HT6 receptors (Homo sapiens, UniProt P50406)
T1 construct: expressed in transfected cells; host or cells: HeLa cells
Type: binding
Details: for inhibition at 1 µM / % Inhibition: test compound dose 1000 nM; for Ki: [3H]-LSD 3.0 nM, Hela cell membranes, read-out: 5-HT6 Binding Ki
Experimental: This operation is repeated.
The reaction is allowed to proceed in the dark for 120 min at room temperature, at which time, the bound ligand-receptor complex is filtered off on a 96 well unifilter with a Packard Filtermate® 196 Harvester. The bound complex caught on the filter disk is allowed to air dry and the radioactivity is measured in a Packard TopCount® equipped with six photomultiplier detectors, after the addition of 40.0 μl Microscint®-20 scintillant to each shallow well. The unifilter plate is heat-sealed and counted in a PackardTopCount® with a tritium efficiency of 31.0%.
Specific binding to the 5-HT6 receptor is defined as the total radioactivity bound less the amount bound in the presence of 10.0 μM unlabeled methiothepin. Binding in the presence of varying concentrations of test compound is expressed as a percentage of specific binding in the absence of test compound. The results are plotted as logit % bound versus log concentration of test compound. Nonlinear regression analysis of data points with a computer assisted program Prism® yields both the IC50 and the Ki values of test compounds with 95% confidence limits.
The amount of displacement by the test compound is given in percent (%) inhibition and is derived from the following equation: [formula] where B0 is the amount of CPM bound in the presence of the testing agent. NSB represents the CPM bound in the presence of a saturating concentration of a displacer and TB represents the total amount of CPM bound at zero (0) concentration of test compound.
Alternatively, a linear regression line of decline of data points is plotted, from which the IC50 value can be read off and the Ki value determined by solving the following equation: [formula] where L is the concentration of the radioactive ligand used and KD is the dissociation constant of the ligand for the receptor, both expressed in nM.

T1 sequence (P50406 whole entry): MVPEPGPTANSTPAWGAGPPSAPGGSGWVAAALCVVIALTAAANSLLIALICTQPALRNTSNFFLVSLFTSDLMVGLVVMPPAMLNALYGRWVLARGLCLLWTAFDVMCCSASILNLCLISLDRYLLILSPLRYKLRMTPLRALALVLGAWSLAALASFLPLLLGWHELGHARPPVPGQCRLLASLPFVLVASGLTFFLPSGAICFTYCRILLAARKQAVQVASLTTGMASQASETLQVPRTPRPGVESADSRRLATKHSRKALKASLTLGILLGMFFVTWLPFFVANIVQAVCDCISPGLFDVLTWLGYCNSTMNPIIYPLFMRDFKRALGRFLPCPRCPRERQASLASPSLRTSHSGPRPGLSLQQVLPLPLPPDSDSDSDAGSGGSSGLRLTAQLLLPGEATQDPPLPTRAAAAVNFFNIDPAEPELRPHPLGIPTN

Row | Compound | inhibition at 1 µM (displacement of [3H]-LSD) [%] | other results
1 | CN(N=C(CCc1ccccc1)c1c(-c2ccccc2)[nH]c2ccccc12)C1=NCCN1 [Example 69, N-(4,5-dihydro-1H-imidazol-2-yl)-N-methyl-N′-[3-phenyl-1-(2-phenyl-1H-indol-3-yl)-propylidene]hydrazine] | 23 | –
2 | CN(N=C(CCc1ccccc1)c1c(-c2ccc(Cl)cc2)[nH]c2ccccc12)C1=NCCN1 [Example 70, N′-{1-[2-(4-chloro-phenyl)-1H-indol-3-yl]-3-phenyl-propylidene}-N-(4,5-dihydro-1H-imidazol-2-yl)-N-methylhydrazine] | 33.9 | –
3 | CN(N=C(C=Cc1ccccc1)c1c(-c2ccccc2)[nH]c2ccccc12)C1=NCCN1 [Example 71, N-(4,5-dihydro-1H-imidazol-2-yl)-N-methyl-N′-[3-phenyl-1-(2-phenyl-1H-indol-3-yl)-allylidene]hydrazine] | 30 | –
4 | CN(N=C(C=Cc1ccccc1)c1c(-c2ccc(Cl)cc2)[nH]c2ccccc12)C1=NCCN1 [Example 72, N′-{1-[2-(4-chloro-phenyl)-1H-indol-3-yl]-3-phenyl-allylidene}-N-(4,5-dihydro-1H-imidazol-2-yl)-N-methylhydrazine] | 40.9 | –
5 | CN(N=C(Cc1ccc(Cl)cc1)c1c(-c2ccc(Cl)cc2)[nH]c2ccccc12)C1=NCCN1 [Example 73, N′-{2-(4-chloro-phenyl)-1-[2-(4-chloro-phenyl)-1H-indol-3-yl]-ethylidene}-N-(4,5-dihydro-1H-imidazol-2-yl)-N-methylhydrazine] | 37.5 | –
6 | CC(=NNC(=N)N)c1c(-c2ccc(F)cc2)[nH]c2ccccc12 [Example 74, 2-{1-[2-(4-fluoro-phenyl)-1H-indol-3-yl]-ethylidene}hydrazinecarboximidamide] | – | inhibition at 0.01 µM (test compound dose 10 nM, displacement of [3H]-LSD): 38.3%
7 | CC(=NNC(=N)N)c1c(-c2ccc(F)c(F)c2)[nH]c2ccccc12 [Example 75, 2-{1-[2-(3,4-difluoro-phenyl)-1H-indol-3-yl]-ethylidene}hydrazinecarboximidamide] | 73.2 | –
8 | CC(=NNC(=N)N)c1c(-c2ccccc2)n(CCc2ccccc2)c2ccccc12 [Example 78, 2-{[1-(2-Phenethyl)-2-phenyl-1H-indol-3-yl]ethylidene}hydrazine-carboximidamide] | – | % Inhibition (displacement of [3H]-LSD): 84.2%
9 | Cn1c(-c2ccccc2)c(C(=NNC(=N)N)C2CCCCC2)c2ccccc21 [Example 79, 2-[cyclohexyl-(1-methyl-2-phenyl-1H-indol-3-yl)-methylene]hydrazinecarboximidamide] | 31.3 | –
10 | N=C(N)NN=C(c1c(-c2ccccc2)n(-c2ccccc2)c2ccccc12)C1CCCCC1 [Example 80, 2-[cyclohexyl-(1,2-diphenyl-1H-indol-3-yl)-methylene]hydrazinecarboximidamide] | 8.7 | –
11 | CC(C)C(=NNC(=N)N)c1c(-c2ccccc2)n(C)c2ccccc12 [Example 81, 2-[1-(1-methyl-2-phenyl-1H-indol-3-yl)-2-methyl-propylidene]hydrazinecarboximidamide] | 43.2 | –
12 | CC(C)C(=NNC(=N)N)c1c(-c2ccccc2)n(-c2ccccc2)c2ccccc12 [Example 82, 2-[1-(1,2-diphenyl-1H-indol-3-yl)-2-methyl-propylidene]hydrazinecarboximidamide] | 21.5 | –
13 | Cn1c(-c2ccccc2)c(C(Cc2ccccc2)=NNC(=N)N)c2ccccc21 [Example 83, 2-[1-(1-methyl-2-phenyl-1H-indol-3-yl)-2-phenyl-ethylidene]hydrazinecarboximidamide] | 31 | –
14 | N=C(N)NN=C(Cc1ccccc1)c1c(-c2ccccc2)n(-c2ccccc2)c2ccccc12 [Example 84, 2-[1-(1,2-diphenyl-1H-indol-3-yl)-2-phenyl-ethylidene]hydrazinecarboximidamide] | 22.9 | –
15 | CN(N=Cc1c(-c2ccc(Cl)cc2)n(Cc2ccccc2)c2ccccc12)C1=NCCN1 [Example 95, N-{[1-benzyl-2-(4-chloro-phenyl)-1H-indol-3-yl]-methylene}-N′-(4,5-dihydro-1H-imidazol-2-yl)-N-methylhydrazine] | – | % Inhibition (displacement of [3H]-LSD): 20.0%
16 | CN(N=Cc1c(-c2ccc(Cl)cc2)n(Cc2ccccc2Cl)c2ccccc12)C1=NCCN1 [Example 97, N-{[1-(2-chloro-benzyl)-2-(4-chloro-phenyl)-1H-indol-3-yl]-methylene}-N′-(4,5-dihydro-1H-imidazol-2-yl)-N-methylhydrazine] | – | % Inhibition (displacement of [3H]-LSD): 0.4%
17 | Cc1ccc(Cn2c(-c3ccc(Cl)cc3)c(C=NN(C)C3=NCCN3)c3ccccc32)cc1 [Example 99, N-{[2-(4-chloro-phenyl)-1-(4-methyl-benzyl)-1H-indol-3-yl]-methylene}-N′-(4,5-dihydro-1H-imidazol-2-yl)-N-methylhydrazine] | – | % Inhibition (displacement of [3H]-LSD): 5.7%
18 | CCn1c(-c2ccc(Cl)cc2)c(C=NN(C)C2=NCCN2)c2ccccc21 [Example 104, N-{[2-(4-chloro-phenyl)-1-ethyl-1H-indol-3-yl]-methylene}-N′-(4,5-dihydro-1H-imidazol-2-yl)-N-methylhydrazine] | – | % Inhibition (displacement of [3H]-LSD): 100.0%

More lines, main results first:

Row | inhibition at 1 µM (displacement of [3H]-LSD) [%] | Compound | other results
19 | 99.4 | CC(=NNC(=N)N)c1c(-c2ccccc2)n(C)c2ccccc12 [Example 86, 2-[1-(1-methyl-2-phenyl-1H-indol-3-yl)-ethylidene]hydrazinecarboximidamide] | Ki: 19 nM
20 | 31.3 | CC(=NNC(=N)N)c1c(-c2ccccc2)n(-c2ccccc2)c2ccccc12 [Example 87, 2-[1-(1,2-diphenyl-1H-indol-3-yl)-ethylidene]hydrazinecarboximidamide] | –
21 | 70.6 | Cn1c(-c2ccccc2)c(C=NNC(=N)N)c2ccccc21 [Example 89, 2-[(1-methyl-2-phenyl-1H-indol-3-yl)-methylene]hydrazinecarboximidamide] | –
22 | 99.9 | CN(N=Cc1c(-c2ccccc2)n(C)c2ccccc12)C1=NCCN1 [Example 90, N-(4,5-dihydro-1H-imidazol-2-yl)-N′-[(1-methyl-2-phenyl-1H-indol-3-yl)-methylene]-N-methylhydrazine] | Ki: 11 nM
23 | 24 | N=C(N)NN=Cc1c(-c2ccccc2)n(-c2ccccc2)c2ccccc12 [Example 91, 2-[(1,2-diphenyl-1H-indol-3-yl)-methylene]hydrazinecarboximidamide] | –
24 | 17.8 | CN(N=Cc1c(-c2ccccc2)n(-c2ccccc2)c2ccccc12)C1=NCCN1 [Example 92, N-(4,5-dihydro-1H-imidazol-2-yl)-N′-[(1,2-diphenyl-1H-indol-3-yl)-methylene]-N-methylhydrazine] | –
25 | 22.3 | CC(=NNC(=N)N)c1c(-c2ccc(Cl)cc2)n(Cc2ccccc2)c2ccccc12 [Example 93, 2-{1-[1-benzyl-2-(4-chloro-phenyl)-1H-indol-3-yl]-ethylidene}hydrazinecarboximidamide] | –
26 | 19.7 | N=C(N)NN=Cc1c(-c2ccc(Cl)cc2)n(Cc2ccccc2)c2ccccc12 [Example 94, 2-{[1-benzyl-2-(4-chloro-phenyl)-1H-indol-3-yl]-methylene}hydrazinecarboximidamide] | –
27 | 15.6 | N=C(N)NN=Cc1c(-c2ccc(Cl)cc2)n(Cc2ccccc2Cl)c2ccccc12 [Example 96, 2-{[1-(2-chloro-benzyl)-2-(4-chloro-phenyl)-1H-indol-3-yl]-methylene}hydrazinecarboximidamide] | –
28 | 21.1 | Cc1ccc(Cn2c(-c3ccc(Cl)cc3)c(C=NNC(=N)N)c3ccccc32)cc1 [Example 98, 2-{[2-(4-chloro-phenyl)-1-(4-methyl-benzyl)-1H-indol-3-yl]-methylene}hydrazinecarboximidamide] | –
29 | 31.5 | CC(=NNC(=N)N)c1c(-c2ccc(Cl)cc2)n(Cc2csc(C)n2)c2ccccc12 [Example 100, 2-(1-{2-(4-chlorophenyl)-1-[(2-methyl-1,3-thiazol-4-yl)methyl]-1H-indol-3-yl}ethylidene)-1hydrazinecarboximidamide] | –
30 | 24 | Cc1nc(Cn2c(-c3ccc(Cl)cc3)c(C=NNC(=N)N)c3ccccc32)cs1 [Example 101, 2-({2-(4-chlorophenyl)-1-[(2-methyl-1,3-thiazol-4-yl)methyl]-1H-indol-3-yl}methylidene)-1hydrazinecarboximidamide] | –
31 | 62.7 | Cc1nc(Cn2c(-c3ccc(Cl)cc3)c(C=CNNC3=NCCN3)c3ccccc32)cs1 [Example 102, {[2-(4-chlorophenyl)-1((2-methyl-thiazol-4-yl)methyl)-1H-indol-3-yl]methylene}-N′-(4,5-dihydro-1H-imidazol-2-yl)-N-methylhydrazine] | –
32 | 80.1 | CCn1c(-c2ccc(Cl)cc2)c(C=NNC(=N)N)c2ccccc21 [Example 103, 2-{[2-(4-chloro-phenyl)-1-ethyl-1H-indol-3-yl]-methylene}hydrazinecarboximidamide] | –
33 | 87.2 | CC(=NNC(=N)N)c1c(-c2ccc(Cl)cc2)n(CCC#N)c2ccccc12 [Example 107, 2-{1-[2-(4-chloro-phenyl)-1-(2-cyano-ethyl)-1H-indol-3-yl]-ethylidene}hydrazinecarboximidamide] | –
